Experimental data from US12478617B2, “Lipidated peptide inhibitors of interleukin-23 receptor” (JANSSEN BIOTECH, INC., priority 2021, dated 2025).
Positions of bridges follow the written chain, without caps; N, C: chain ends. Non-standard residues stand in square brackets, D forms with d. Residues, ends and D or L forms follow the SMILES beside them. *: point of attachment. X1 = O=C(O)CCCCCCCCCCCCCCC(=O)N[C@@H](CCCCN*)C(=O)O; Trp(7-Me) = Cc1cccc2c(C[C@H](N)C(=O)O)c[nH]c12; 2Nal = N[C@@H](Cc1ccc2ccccc2c1)C(=O)O; AEF = NCCOc1ccc(C[C@H](N)C(=O)O)cc1; 3Pal = N[C@@H](Cc1cccnc1)C(=O)O; Pen = CC(C)(S)[C@H](N)C(=O)O; Thp = NC1(C(=O)O)CCOCC1; AEEA = NCCOCCOCC(=O)O; Sar = CNCC(=O)O

Assays:
[1] = from Ac-Pen-Asn-Thr-7MeTrp-Lys(Ac)-Pen-AEF-2Nal-THP-Lys(Ac)-Asn-3Pya-Sar-PEG2-PEG2-eLys(C16OH)-OH; disulfide bond; 20-membered ring; I2/AcOH; ACN/H2O; […]
IL-23R = biological target: T1, IL-23R (Homo sapiens, UniProt Q5VWK5); assay: IL23R Reporter Assay; assay type: cell-based
T1 construct: HEK293 cells containing IL-23R, IL-12RP31 and a firefly luciferase reporter gene driven by a STAT-inducible promoter (Promega); host or cells: HEK293
T1 sequence (Q5VWK5 24-629): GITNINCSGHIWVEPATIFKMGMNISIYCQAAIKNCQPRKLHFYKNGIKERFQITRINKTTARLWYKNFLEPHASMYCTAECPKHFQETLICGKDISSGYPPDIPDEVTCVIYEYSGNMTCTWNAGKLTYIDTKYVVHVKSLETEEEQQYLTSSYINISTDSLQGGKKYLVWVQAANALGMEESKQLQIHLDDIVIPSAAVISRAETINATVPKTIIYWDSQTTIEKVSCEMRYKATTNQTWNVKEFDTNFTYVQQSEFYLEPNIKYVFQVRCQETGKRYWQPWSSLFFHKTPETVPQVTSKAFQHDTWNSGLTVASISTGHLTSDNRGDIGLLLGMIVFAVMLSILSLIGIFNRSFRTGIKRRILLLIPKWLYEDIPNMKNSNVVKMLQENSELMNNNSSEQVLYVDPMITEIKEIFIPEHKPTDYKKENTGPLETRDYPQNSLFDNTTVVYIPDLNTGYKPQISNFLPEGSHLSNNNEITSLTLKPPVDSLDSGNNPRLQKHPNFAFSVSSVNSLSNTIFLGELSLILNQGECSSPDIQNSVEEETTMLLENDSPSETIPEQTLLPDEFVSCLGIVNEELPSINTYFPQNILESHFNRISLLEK
Procedure, shortened: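 Reporter cells read out IL-23-driven STAT3 activation; compounds were serially diluted in DMSO. After 5 h at 37 °C, 5% CO2, cells were brought to 20 °C and luminescence was measured with BioGlo reagent.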

[2] = biological target: T2, peripheral blood mononuclear cells (PBMCs) (Homo sapiens, UniProt Q5VWK5); assay: PBMC pSTAT3 assay; assay type: cell-based; settings: PBMCs from healthy donors, anti-CD3/IL-1β cultured; peptide 30 min, then IL-23 5 ng/mL for 30 min; phosphorylated STAT3 (Meso Scale Discovery)
T2 sequence (Q5VWK5 24-629): T1 sequence (Q5VWK5 24-629)
Text: IL-23 binding to IL-23 receptors results in the activation of the Signal Transducer and Activator of Transcription 3 (STAT3) by phosphorylation and downstream signaling events. Accordingly. the ability of the inhibitors described herein to block IL-23 action can be assessed by monitoring the status of STAT3 activation in response to IL-23. This may be accomplished in reporter cell assays or in intact cells such as peripheral blood mononuclear cells (PBMCs).

SMILES: CC(=O)NCCCC[C@@H]1NC(=O)[C@H](Cc2c[nH]c3c(C)cccc23)NC(=O)[C@H]([C@@H](C)O)NC(=O)[C@H](CC(N)=O)NC(=O)[C@@H](NC(C)=O)C(C)(C)SSC(C)(C)[C@@H](C(=O)N[C@@H](Cc2ccc(OCCN)cc2)C(=O)N[C@@H](Cc2ccc3ccccc3c2)C(=O)NC2(C(=O)N[C@@H](CCCCNC(C)=O)C(=O)N[C@@H](CC(N)=O)C(=O)N[C@@H](Cc3cccnc3)C(=O)N(C)CC(=O)NCCOCCOCC(=O)NCCOCCOCC(=O)NCCCC[C@H](NC(=O)CCCCCCCCCCCCCCC(=O)O)C(=O)O)CCOCC2)NC1=O [Example 8, MeCO-Pen*-N-T-7MeW-K(Ac)-Pen*-AEF-2Nal-THP—K(Ac)-N— 3Pva-Sar-PEG2-PEG2-eK(C160H)-COOH (*Pen-Pen form disulfide bond)] (Ac-[Pen]NT[Trp(7-Me)]K(Ac)[Pen][AEF][2Nal][Thp]K(Ac)N[3Pal][Sar][AEEA][AEEA]-X1; disulfide 1-6)
- ring closure, yield after HPLC [1]: 7%
- IC50 (IL-23R): 89 pM
- IC50 [2]: 210 pM
